# In patent US20050222173A1, “Triazolopyrimidines” (priority 2002, published 2005):
# Assay: logP determination by HPLC (EEC Directive 79/831 Annex V. A8)
# Details: HPLC, gradient method, acetonitrile/0.1% aqueous phosphoric acid
row,log.P,Structure (SMILES)
1,3.52,CC(Nc1c(-c2c(F)cc(F)cc2F)c(Cl)nc2nc(N(C)C)nn12)C(F)(F)F (stereo not drawn) [Example 3]
2,3.33,CC(C)NNc1c(-c2c(F)cc(F)cc2F)c(Cl)nc2nc(N(C)C)nn12 [Example 4]
3,2.99,Fc1cc(F)c(-c2c(Cl)nc3nc(Cl)nn3c2N2CCOCC2)c(F)c1 [Example 5]
4,3.72,CC1CN(c2c(-c3c(F)cc(F)cc3F)c(Cl)nc3nc(Cl)nn23)CC(C)O1 (stereo not drawn) [Example 6]
5,3.07,CCNc1c(-c2c(F)cc(F)cc2F)c(Cl)nc2nc(Cl)nn12 [Example 7]
6,3.46,Fc1cc(F)c(-c2c(Cl)nc3nc(Cl)nn3c2N2CCCC2)c(F)c1 [Example 8]
7,3.85,CCN(CC)c1c(-c2c(F)cc(F)cc2F)c(Cl)nc2nc(Cl)nn12 [Example 9]
8,3.37,CCCNc1c(-c2c(F)cc(F)cc2F)c(Cl)nc2nc(Cl)nn12 [Example 10]
9,3.9,Fc1cc(F)c(-c2c(Cl)nc3nc(Cl)nn3c2NC2CCCC2)c(F)c1 [Example 11]
10,2.91,COCCNc1c(-c2c(F)cc(F)cc2F)c(Cl)nc2nc(Cl)nn12 [Example 12]
11,2.67,CNc1c(-c2c(F)cc(F)cc2F)c(Cl)nc2nc(Cl)nn12 [Example 13]
12,3.1,Fc1cc(F)c(-c2c(Cl)nc3nc(Cl)nn3c2NC2CC2)c(F)c1 [Example 14]
13,3.68,Fc1cc(F)c(-c2c(Cl)nc3nc(Cl)nn3c2N2CCSCC2)c(F)c1 [Example 15]
14,2.74,Fc1cc(F)c(-c2c(Cl)nc3nc(Cl)nn3c2NN2CCOCC2)c(F)c1 [Example 16]
15,3.55,Clc1nc2nc(Cl)c(-c3ccccc3Cl)c(NCC3CC3)n2n1 [Example 19]
16,2.18,OCCNc1c(-c2ccccc2Cl)c(Cl)nc2nc(Cl)nn12 [Example 21]
17,3.99,CC(C)(C)Nc1c(-c2ccccc2Cl)c(Cl)nc2nc(Cl)nn12 [Example 22]
18,4.87,CC(Nc1c(-c2c(F)cc(F)cc2F)c(Cl)nc2nc(Cl)nn12)C1CCCCC1 (stereo not drawn) [Example 23]
19,2.23,OCCNc1c(-c2c(F)cc(F)cc2F)c(Cl)nc2nc(Cl)nn12 [Example 24]
20,3.9,CC(C)(C)Nc1c(-c2c(F)cc(F)cc2F)c(Cl)nc2nc(Cl)nn12 [Example 25]
21,3.18,CN(C)c1c(-c2ccccc2Cl)c(Cl)nc2nc(Cl)nn12 [Example 26]
22,3.03,Clc1nc2nc(Cl)c(-c3ccccc3Cl)c(N3CCOCC3)n2n1 [Example 27]

row,log.P,Structure (SMILES)
1,3.81,CC1CN(c2c(-c3ccccc3Cl)c(Cl)nc3nc(Cl)nn23)CC(C)O1 (stereo not drawn) [Example 28]
2,3.07,CCNc1c(-c2ccccc2Cl)c(Cl)nc2nc(Cl)nn12 [Example 29]
3,3.59,Clc1nc2nc(Cl)c(-c3ccccc3Cl)c(N3CCCC3)n2n1 [Example 30]
4,3.99,CCN(CC)c1c(-c2ccccc2Cl)c(Cl)nc2nc(Cl)nn12 [Example 31]
5,4.18,Clc1nc2nc(Cl)c(-c3ccccc3Cl)c(N3CCCCC3)n2n1 [Example 32]
6,3.46,CCCNc1c(-c2ccccc2Cl)c(Cl)nc2nc(Cl)nn12 [Example 33]
7,4.03,Clc1nc2nc(Cl)c(-c3ccccc3Cl)c(NC3CCCC3)n2n1 [Example 34]
8,2.91,COCCNc1c(-c2ccccc2Cl)c(Cl)nc2nc(Cl)nn12 [Example 35]
9,2.7,CNc1c(-c2ccccc2Cl)c(Cl)nc2nc(Cl)nn12 [Example 36]
10,3.18,Clc1nc2nc(Cl)c(-c3ccccc3Cl)c(NC3CC3)n2n1 [Example 37]
11,3.76,Clc1nc2nc(Cl)c(-c3ccccc3Cl)c(N3CCSCC3)n2n1 [Example 38]
12,3.18,CN(C)Nc1c(-c2ccccc2Cl)c(Cl)nc2nc(Cl)nn12 [Example 40]
13,2.55,COC(=O)N(C)Nc1c(-c2ccccc2Cl)c(Cl)nc2nc(Cl)nn12 [Example 41]
14,4.32,Clc1nc2nc(Cl)c(-c3ccccc3Cl)c(NC3CCCCC3)n2n1 [Example 42]
15,3.4,CC(C)Nc1c(-c2c(F)cc(F)cc2F)c(Cl)nc2nc(Br)nn12 [Example 43]
16,3.45,CC(C)Nc1c(-c2ccccc2Cl)c(Cl)nc2nc(Br)nn12 [Example 45]
17,5,Fc1cc(F)c(-c2c(Cl)nc3nc(Cl)nn3c2N2CCC(C(F)(F)F)CC2)c(F)c1 [Example 46]
18,3.36,CC(C)Nc1c(-c2c(F)cc(F)cc2F)c(Cl)nc2nc(Cl)nn12 [Example 47]
19,3.67,CC(C)CN(N)c1c(-c2c(F)cc(F)cc2F)c(Cl)nc2nc(Cl)nn12 [Example 48]
20,3.03,Fc1cc(F)c(-c2c(Cl)nc3nc(Br)nn3c2N2CCOCC2)c(F)c1 [Example 49]
21,3.72,CC1CN(c2c(-c3c(F)cc(F)cc3F)c(Cl)nc3nc(Br)nn23)CC(C)O1 (stereo not drawn) [Example 50]
22,3.07,CCNc1c(-c2c(F)cc(F)cc2F)c(Cl)nc2nc(Br)nn12 [Example 51]

row,log.P,Structure (SMILES)
1,3.5,Fc1cc(F)c(-c2c(Cl)nc3nc(Br)nn3c2N2CCCC2)c(F)c1 [Example 52]
2,3.9,CCN(CC)c1c(-c2c(F)cc(F)cc2F)c(Cl)nc2nc(Br)nn12 [Example 53]
3,3.41,CCCNc1c(-c2c(F)cc(F)cc2F)c(Cl)nc2nc(Br)nn12 [Example 54]
4,2.99,COCCNc1c(-c2c(F)cc(F)cc2F)c(Cl)nc2nc(Br)nn12 [Example 55]
5,3.14,Fc1cc(F)c(-c2c(Cl)nc3nc(Br)nn3c2NC2CC2)c(F)c1 [Example 56]
6,2.77,Fc1cc(F)c(-c2c(Cl)nc3nc(Br)nn3c2NN2CCOCC2)c(F)c1 [Example 57]
7,3.9,CC(C)(C)Nc1c(-c2c(F)cc(F)cc2F)c(Cl)nc2nc(Br)nn12 [Example 58]
8,3.14,CN(C)c1c(-c2c(F)cc(F)cc2F)c(Cl)nc2nc(Br)nn12 [Example 59]
9,3.94,Fc1cc(F)c(-c2c(Cl)nc3nc(Br)nn3c2NC2CCCC2)c(F)c1 [Example 60]
10,3.72,Fc1cc(F)c(-c2c(Cl)nc3nc(Br)nn3c2N2CCSCC2)c(F)c1 [Example 61]
11,3.5,Fc1cc(F)c(-c2c(Cl)nc3nc(Br)nn3c2NCC2CC2)c(F)c1 [Example 62]
12,3.76,CCC(C)Nc1c(-c2c(F)cc(F)cc2F)c(Cl)nc2nc(Br)nn12 (stereo not drawn) [Example 64]
13,3.67,CC(C)CN(N)c1c(-c2c(F)cc(F)cc2F)c(Cl)nc2nc(Br)nn12 [Example 65]
14,3.28,CC(C)(Nc1c(-c2c(F)cc(F)cc2F)c(Cl)nc2nc(Cl)nn12)C(F)(F)F [Example 66]
15,3.28,Fc1cc(F)c(-c2c(Cl)nc3nc(Cl)nn3c2N2CCCCC2C(F)(F)F)c(F)c1 (stereo not drawn) [Example 67]
16,3.39,CON(C)c1c(-c2c(F)cc(F)cc2F)c(Cl)nc2nc(Br)nn12 [Example 68]
17,4.04,CCC(C)CNc1c(-c2c(F)cc(F)cc2F)c(Cl)nc2nc(Cl)nn12 (stereo not drawn) [Example 69]
18,3.79,CCC(C)Nc1c(-c2ccccc2Cl)c(Cl)nc2nc(Cl)nn12 (stereo not drawn) [Example 70]
19,3.36,CON(C)c1c(-c2c(F)cc(F)cc2F)c(Cl)nc2nc(Cl)nn12 [Example 71]
20,4.19,CC1=CCCN(c2c(-c3c(F)cc(F)cc3F)c(Cl)nc3nc(Br)nn23)C1 [Example 72]
21,4.05,CCC(C)CNc1c(-c2c(F)cc(F)cc2F)c(Cl)nc2nc(Br)nn12 (stereo not drawn) [Example 73]
22,3.7,CCC(C)Nc1c(-c2c(F)cc(F)cc2F)c(Cl)nc2nc(Cl)nn12 (stereo not drawn) [Example 74]

row,log.P,Structure (SMILES)
1,3.62,CCN(CCOC)c1c(-c2c(F)cc(F)cc2F)c(Cl)nc2nc(Br)nn12 [Example 75]
2,4.4,C=C(C)CN(CC)c1c(-c2c(F)cc(F)cc2F)c(Cl)nc2nc(Br)nn12 [Example 76]
3,3.61,CCN(CCOC)c1c(-c2c(F)cc(F)cc2F)c(Cl)nc2nc(Cl)nn12 [Example 77]
4,4.4,C=C(C)CN(CC)c1c(-c2c(F)cc(F)cc2F)c(Cl)nc2nc(Cl)nn12 [Example 78]
5,3.18,COc1nc2nc(Cl)c(-c3c(F)cc(F)cc3OC)c(NC(C)C(F)(F)F)n2n1 (stereo not drawn) [Example 80]
6,4.22,FC(F)(F)C1CCN(c2c(-c3ccccc3Cl)c(Cl)nc3nc(Cl)nn23)CC1 [Example 81]
7,4.62,CC1CCN(c2c(-c3ccccc3Cl)c(Cl)nc3nc(Cl)nn23)CC1 [Example 82]
8,3.55,Fc1cc(F)c(-c2c(Cl)nc3nc(Cl)nn3c2N2CCC(F)CC2)c(F)c1 [Example 83]
9,2.71,CN1CCN(c2c(-c3c(F)cc(F)cc3F)c(Cl)nc3nc(Cl)nn23)CC1 [Example 84]
10,4.33,CC1CCCCN1c1c(-c2c(F)cc(F)cc2F)c(Cl)nc2nc(Cl)nn12 (stereo not drawn) [Example 85]
11,3.37,C=C(C)CNc1c(-c2c(F)cc(F)cc2F)c(Cl)nc2nc(Cl)nn12 [Example 86]
12,4.21,CC1=CCCN(c2c(-c3c(F)cc(F)cc3F)c(Cl)nc3nc(Cl)nn23)C1 [Example 87]
13,4.45,CC1CCCN(c2c(-c3c(F)cc(F)cc3F)c(Cl)nc3nc(Cl)nn23)C1 (stereo not drawn) [Example 88]
14,4.06,Fc1cc(F)c(-c2c(Cl)nc3nc(Cl)nn3c2N2CCCCC2)c(F)c1 [Example 89]
15,4.45,CC1CCN(c2c(-c3c(F)cc(F)cc3F)c(Cl)nc3nc(Cl)nn23)CC1 [Example 90]
16,4.63,CCC1=CCN(c2c(-c3c(F)cc(F)cc3F)c(Cl)nc3nc(Cl)nn23)CC1 [Example 91]
17,4.64,CC1CCCN(c2c(-c3ccccc3Cl)c(Cl)nc3nc(Cl)nn23)C1 (stereo not drawn) [Example 92]
18,4.87,CCC1=CCN(c2c(-c3ccccc3Cl)c(Cl)nc3nc(Cl)nn23)CC1 [Example 93]
19,3.42,CC(C)Nc1c(-c2c(F)cccc2Cl)c(Cl)nc2nc(Cl)nn12 [Example 94]

row,Structure (SMILES),log.P
1,CC(NNc1c(-c2ccccc2Cl)c(Cl)nc2nc(Cl)nn12)C1CC1 (stereo not drawn) [Example 17],3.55
2,FC(F)C(F)(F)CNNc1c(-c2ccccc2Cl)c(Cl)nc2nc(Cl)nn12 [Example 18],3.59
